Results published in publication PMC7934871 (JCI Insight, 2021).

Assays:
[1] = system: pY694-STAT5; test: Western blotting of p-STAT5 in HCT116 cells; type: cell-based, human; settings: HCT116, 1 µM, 48 hours
Procedure: (§1) Whole cell lysates or tissue homogenates were prepared by using RIPA lysis buffer (50 mM Tris at pH 7.4, 150 mM NaCl, 1 mM EDTA, 0.5% NP-40, 1 mM NaF, 15% glycerol, and 20 mM β-glycerophosphate). A protease inhibitor cocktail (Mini Protease Inhibitor Cocktail; Roche) and a tyrosine phosphatase inhibitor, sodium orthovanadate (Na3VO4, 1 mM), were added freshly to the lysis buffer. Protein amounts were determined by BCA using a Thermo Fisher Scientific kit. Normalized protein amounts were subjected to an SDS-PAGE and transferred onto a nitrocellulose membrane for Western blotting. Proteins were visualized with a chemiluminescent detection kit (Pierce, Thermo Fisher Scientific). The protein levels for STAT1 (sc-346, E-23), STAT3 (sc-482, C-20), STAT5 (sc-74442, A-9), Crm1 (exportin 1) (sc-5595, H-300), CAS (exportin 2) (sc-271537, H-2), exportin 5 (sc-66885, H-300), and exportin 7 (sc-98639, H-82) were determined using antibodies from Santa Cruz Biotechnology Inc. Anti–exportin 3 (exportin T, 630622, LOS1 05-1525), anti–exportin 4 (3499-1), and anti–exportin 6 (11408-1-AP) were from MilliporeSigma, Epitomics, and Proteintech, respectively. […]
(§2) Supplemental Figure 4 (related to Figure 1). […] Phosphorylation of STAT3 at Y705 and STAT5 at Y694 was detected by Western blotting after 48 hours treatment of PS-acet.-STAT3 peptide (1 µM) or napabucasin (1 µM) in HCT116 cells. […]

[2] = system: pY705-STAT3; test: Western blotting of p-STAT3 in HCT116 cells; type: cell-based, human; settings: HCT116, 1 µM, 48 hours
From the text: Figure 3 PS-acet.-STAT3 peptide inhibits STAT3 activity and downregulates the expression of STAT3 targets. (A) Downregulation of STAT3 activity and its downstream target proteins shown in human HCT116 colorectal cancer cells by Western blotting (data represent 1 of the 3 experiments, n = 3). PO-acet.-STAT3 and PS-STAT3-K685R peptides were used in parallel as controls. (B) STAT3 inhibition regulated the expression of proliferation and apoptotic genes, assessed by real-time quantitative PCR. Data present mean ± SD, n = 3 independent experiments, 1-way ANOVA; ***P < 0.005; **P < 0.01. […] For p53 promoter assay, data represent 3 replicates in 3 independent experiments (n = 9). For cell proliferation assay, data represent 3 independent experiments. SD is shown (n = 3). One-way ANOVA; ***P < 0.005; **P < 0.01.
as §1, with “Proteins were visualized with a chemiluminescent detection kit (Pierce, Thermo Fisher Scientific).” left out
as §2

For `CC(=O)c1cc2c(o1)C(=O)c1ccccc1C2=O` [napabucasin, reference compound], the “p-STAT5 (Y694) level” value [1] was “inhibited” and the “phosphorylated STAT3 (p-STAT3, Y705) level” value [2] was “inhibited”.
